Experimental findings from ChEMBL document CHEMBL2390861, “Caffeic acid derivatives: a new type of influenza neuraminidase inhibitors” (Bioorg Med Chem Lett, 2013) are described below.

pEC50, pIC50, pKi: −log10 of the molar value. Some results are limits rather than exact numbers.

One data set relates to Influenza A virus. Nature of the data set: Antiviral activity against Influenza A virus (A/chicken/Sandong/Li/2008(H9N2)) infected in chicken embryo fibroblast assessed as protection against virus-induced cytopathic effect after 2 days by MTS assay. Format: functional, organism-based. As to conditions: 48 h. For orientation: Cytopathic effects are the visible damage that an infection or toxin causes in cultured cells.

For data set [1], the target named is T1, Neuraminidase (Influenza A virus, UniProt B4URF0). As to the kind of experiment: Inhibition of Influenza A virus (A/chicken/Sandong/Li/2008(H9N2)) neuraminidase N2 using 4-MU-NANA as substrate after 5 mins by fluorescence assay.
Data set [2] in a line: Cytotoxicity against chicken embryo fibroblast after 2 days by MTS assay. As to conditions: chicken embryo fibroblasts. It counts as cell-based, Gallus gallus. (Tetrazolium dyes change colour on reduction, which living cells bring about.)
In data set [3] the target is T1, Neuraminidase. As to the kind of experiment: Inhibition of Influenza A virus H1N1 A/duck/China/QJ/01 neuraminidase N1 using 4-MU-NANA as substrate after 5 mins by fluorescence assay.
The target in data set [4] is T1, Neuraminidase. Nature of the data set: Inhibition of Influenza A virus H9N2 neuraminidase.
The target of data set [5] is Neuraminidase (Influenza A virus) (UniProt B4URF0). Nature of the data set: Inhibition of Influenza A virus H1N1 A/duck/China/QJ/01 neuraminidase N1 using 4-MU-NANA as substrate at 100 uM after 5 mins by fluorescence assay.
In data set [6] the target is T1, Neuraminidase. As to the kind of experiment: Non-competitive inhibition of Influenza A virus (A/chicken/Sandong/Li/2008(H9N2)) neuraminidase N2 using 4-MU-NANA as substrate by Lineweaver-Burk plot analysis.
The target in data set [7] is T1, Neuraminidase. As to the kind of experiment: Inhibition of Influenza A virus H1N1 neuraminidase.

A word on the pEC50: it is the EC50 on a negative log10 scale, so that one unit is a factor of ten. The pIC50 is the negative decadic logarithm of the IC50, by convention in mol/L. Low readings indicate a large IC50, high ones a small IC50. Usually CC50 stands for the concentration that lowers cell viability or growth by half. In the case of `CCC(CC)C(=O)Nc1cc(NC(=O)/C=C/c2ccc(O)c(O)c2)ccc1O`, in the data set with Influenza A virus, the pEC50 is 4.65. The pIC50 on Neuraminidase [1] is 4.68; at Neuraminidase [3] it was 4.64. This compound gave a CC50 at 48 h in data set [2] greater than 100 µM.

Consider `O=C(O)COc1ccc(NC(=O)/C=C/c2ccc(O)c(O)c2)cc1NC(=O)C1CC1`, for which the results for the pIC50 against Neuraminidase [1] and on Neuraminidase [3] were 4.78 and 4.86, respectively. Moreover, it took 86.7 µM to reach half-maximal cytotoxicity in data set [2] (CC50 at 48 h).

As to `O=C(/C=C/c1ccc(O)cc1)CC(=O)/C=C/c1ccc(O)c(O)c1`, the pIC50 against Neuraminidase [4] was 4.19.

Regarding `CC(C)C(=O)Nc1cc(NC(=O)/C=C/c2ccc(O)c(O)c2)ccc1OCC(=O)O`, the pIC50 is 4.89 at Neuraminidase [1] and 4.94 against Neuraminidase [3]. The CC50 at 48 h in data set [2] is 94.3 µM.

Turning to `CC(C)C(=O)N[C@@H](CCCNC(=O)/C=C/c1ccc(O)c(O)c1)C(=O)O`, the pIC50 is 4.52 at Neuraminidase [1] and 4.50 on Neuraminidase [3]. This compound also displayed a 50% cytotoxic concentration (CC50) at 48 h in data set [2] of 65 µM.

By inhibition is commonly meant the relative decrease from the control value, in per cent. A higher inhibition goes with a response far below the control. With `CC(=O)Nc1cc(NC(=O)/C=C/c2ccccc2)ccc1O`, in data set [5], the inhibition was 40.2%.

As for `O=C(/C=C/c1ccc(O)c(O)c1)N[C@@H](Cc1ccccc1)C(=O)O`, the pIC50 at Neuraminidase [1] was 4.40; at Neuraminidase [3] it was 4.43.

What is called pKi is the Ki on a negative log10 scale, so that one unit is a factor of ten. Higher therefore signals a low Ki. For `CCC(CC)C(=O)Nc1cc(NC(=O)/C=C/c2ccc(O)c(O)c2)ccc1OCC(=O)O`, the pEC50 in the data set on Influenza A virus is 4.51. The compound also gave a pKi on Neuraminidase [6] of 4.94. Besides, the pIC50 against Neuraminidase [1] is 5.14; against Neuraminidase [3] it was 5.07. In data set [2], this compound gave a CC50 at 48 h greater than 100 µM.

The compound `CCC(=O)Nc1cc(NC(=O)/C=C/c2ccccc2)ccc1O` displayed an inhibition in data set [5] of 42.9%.

Consider `CCOC(=O)C1=C[C@@H](OC(CC)CC)[C@H](NC(C)=O)[C@@H](N)C1` [OSELTAMIVIR], for which the pEC50 in the data set with Influenza A virus is 6.30. In data set [2], this compound gave a CC50 at 48 h greater than 10 µM.

On to `O=C(/C=C/c1ccc(O)c(O)c1)N[C@@H](Cc1c[nH]c2ccccc12)C(=O)O`, for which the negative-log EC50 (pEC50) with Influenza A virus is less than 4.00. In addition, the results for the pIC50 on Neuraminidase [1] and against Neuraminidase [3] were 4.57 and 4.52, respectively. For the same compound, in data set [2], the CC50 at 48 h worked out at 89.5 µM.

Regarding `CCC(=O)N[C@@H](CCCNC(=O)/C=C/c1ccc(O)c(O)c1)C(=O)O`, the pIC50 was 4.42 on Neuraminidase [1] and 4.50 at Neuraminidase [3].

Turning to `O=C(O)CCNC(=O)/C=C/c1ccc(O)c(O)c1`, the pEC50 with Influenza A virus was less than 4.00. Besides, the pIC50 was 4.87 at Neuraminidase [1] and 4.56 on Neuraminidase [3]. Also, in data set [2], the CC50 at 48 h is greater than 100 µM.

For the compound `CC(=O)Nc1cc(NC(=O)/C=C/c2ccc(O)c(O)c2)ccc1O`, the pIC50 at Neuraminidase [1] was 4.56; on Neuraminidase [3] it was 4.75. In data set [2], this compound yielded a CC50 at 48 h of 78.2 µM.

On to `CC(C)[C@H](NC(=O)/C=C/c1ccc(O)c(O)c1)C(=O)O`, for which the pIC50 against Neuraminidase [1] is 4.43; at Neuraminidase [3], 4.42.

On to `CC(C)C(=O)Nc1cc(NC(=O)/C=C/c2ccc(O)c(O)c2)ccc1O`, for which the pIC50 on Neuraminidase [1] was 4.69; against Neuraminidase [3], 4.72.

`CC(C)C(=O)Nc1cc(NC(=O)/C=C/c2ccccc2)ccc1O` yielded an inhibition in data set [5] of 47.2%.

For `CCC(CC)C(=O)N[C@@H](CCCNC(=O)/C=C/c1ccc(O)c(O)c1)C(=O)O`, the pIC50 was 4.35 at Neuraminidase [1] and 4.41 against Neuraminidase [3].

On to `O=C(/C=C/c1ccc(O)c(O)c1)NCCC[C@H](NC(=O)Cc1ccccc1)C(=O)O`, for which the pIC50 against Neuraminidase [1] was 4.55; against Neuraminidase [3], 4.52. In data set [2], this compound came in with a CC50 at 48 h of 87.7 µM.

Turning to `O=C(/C=C/c1ccc(O)c(O)c1)NCCC[C@H](NC(=O)c1ccccc1)C(=O)O`, the pIC50 is 4.43 on Neuraminidase [1] and 4.46 against Neuraminidase [3].

On to `O=C(/C=C/c1ccc(O)c(O)c1)Nc1ccc(O)c(NC(=O)C2CC2)c1`, for which the results for the pIC50 against Neuraminidase [1] and against Neuraminidase [3] were 4.61 and 4.74, respectively.

In data set [5], `CCC(CC)C(=O)Nc1cc(NC(=O)/C=C/c2ccccc2)ccc1O` gave an inhibition of 45.2%.

As for `CC(=O)Nc1cc(NC(=O)/C=C/c2ccc(O)c(O)c2)ccc1OCC(=O)O`, the results for the pIC50 against Neuraminidase [1] and against Neuraminidase [3] were 4.81 and 4.91, respectively. In data set [2], this compound showed a CC50 at 48 h of 60.4 µM.

With `CC(C)(C)OC(=O)N[C@@H](CCCNC(=O)/C=C/c1ccc(O)c(O)c1)C(=O)O`, the results for the pIC50 against Neuraminidase [1] and against Neuraminidase [3] were 4.47 and 4.46, respectively.

For `O=C(/C=C/c1ccccc1)Nc1ccc(O)c(NC(=O)C2CC2)c1`, the inhibition in data set [5] was 42.6%.

Regarding `CCC(=O)Nc1cc(NC(=O)/C=C/c2ccc(O)c(O)c2)ccc1O`, in the data set with Influenza A virus, the pEC50 was 4.23. Also, the pIC50 against Neuraminidase [1] was 4.63; against Neuraminidase [3], 4.75. In data set [2], this compound came in with a CC50 at 48 h greater than 100 µM.

Consider `O=C(O)CNC(=O)/C=C/c1ccc(O)c(O)c1`, for which the values for the pIC50 against Neuraminidase [1] and on Neuraminidase [3] were 4.36 and 4.31, respectively.

`O=C(/C=C/c1ccc(O)c(O)c1)CC(=O)/C=C/c1ccc(O)c(O)c1` gave a pIC50 at Neuraminidase [4] of 4.20.

`COc1cc(O)ccc1C(=O)/C=C/c1ccc(O)cc1`: on Neuraminidase [7], the pIC50 was 4.61.

On to `O=C(O)CCCNC(=O)/C=C/c1ccc(O)c(O)c1`, for which the pIC50 on Neuraminidase [1] was 4.77; against Neuraminidase [3], 4.56.
